Measured values as given in PubChem BioAssay (NCI).
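Protocol summary: plate cells (96-well), add compound at 5 concentrations, incubate 48 h, interpolate endpoints linearly. TGI: concentration producing complete growth inhibition.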

How the values were obtained:
Experiment in all cases: NCI anticancer screen, dose series, 48 h
UO-31 renal = test system: UO-31 renal
SK-MEL-5 melanoma = test system: SK-MEL-5 melanoma
SK-MEL-28 melanoma = test system: SK-MEL-28 melanoma
HCT-15 colon = test system: HCT-15 colon
SF-539 CNS = test system: SF-539 CNS
MDA-MB-435 = test system: MDA-MB-435
NCI-H226 lung = test system: NCI-H226 lung
OVCAR-8 ovarian = test system: OVCAR-8 ovarian
ACHN renal = test system: ACHN renal
SK-OV-3 ovarian = test system: SK-OV-3 ovarian
K-562 leukemia = test system: K-562 leukemia
MDA-N = test system: MDA-N
NCI/ADR-RES ovarian = test system: NCI/ADR-RES ovarian
UACC-257 melanoma = test system: UACC-257 melanoma
OVCAR-4 ovarian = test system: OVCAR-4 ovarian
OVCAR-3 ovarian = test system: OVCAR-3 ovarian
EKVX NSCLC = test system: EKVX NSCLC
HL-60(TB) leukemia = test system: HL-60(TB) leukemia
M14 melanoma = test system: M14 melanoma
DU-145 prostate = test system: DU-145 prostate
IGROV1 ovarian = test system: IGROV1 ovarian
786-0 renal = test system: 786-0 renal
CCRF-CEM leukemia = test system: CCRF-CEM leukemia
COLO 205 colon = test system: COLO 205 colon
SF-268 CNS = test system: SF-268 CNS
NCI-H522 lung = test system: NCI-H522 lung
NCI-H23 lung = test system: NCI-H23 lung
PC-3 prostate = test system: PC-3 prostate
SK-MEL-2 melanoma = test system: SK-MEL-2 melanoma
MALME-3M melanoma = test system: MALME-3M melanoma
HCC-2998 colon = test system: HCC-2998 colon
HT29 colon = test system: HT29 colon
T-47D breast = test system: T-47D breast
MCF7 breast = test system: MCF7 breast
HS 578T breast = test system: HS 578T breast
RXF 393 renal = test system: RXF 393 renal
U251 CNS = test system: U251 CNS
HOP-62 NSCLC = test system: HOP-62 NSCLC
UACC-62 melanoma = test system: UACC-62 melanoma
SN12C renal = test system: SN12C renal
MOLT-4 leukemia = test system: MOLT-4 leukemia
SW-620 colon = test system: SW-620 colon
SNB-19 CNS = test system: SNB-19 CNS
LOX IMVI melanoma = test system: LOX IMVI melanoma
SNB-75 CNS = test system: SNB-75 CNS
HOP-92 NSCLC = test system: HOP-92 NSCLC
NCI-H460 lung = test system: NCI-H460 lung
KM12 colon = test system: KM12 colon
MDA-MB-231 breast = test system: MDA-MB-231 breast
HCT-116 colon = test system: HCT-116 colon
A498 renal = test system: A498 renal
SF-295 CNS = test system: SF-295 CNS
RPMI-8226 leukemia = test system: RPMI-8226 leukemia
A549 NSCLC = test system: A549 NSCLC
BT-549 breast = test system: BT-549 breast
CAKI-1 renal = test system: CAKI-1 renal
OVCAR-5 ovarian = test system: OVCAR-5 ovarian
TK-10 renal = test system: TK-10 renal

With `CN(C)c1ccc(/C=C(\NC(=O)c2ccccc2)c2nn(C)c(=O)o2)cc1` the TGI (UO-31 renal) was > 100 µM, the TGI (SK-MEL-5 melanoma) was 93.5 µM and the TGI (SK-MEL-28 melanoma) was > 100 µM. For the same compound, the TGI (HCT-15 colon) was > 100 µM, the TGI (SF-539 CNS) was > 100 µM and the TGI (MDA-MB-435) was > 100 µM. The TGI (NCI-H226 lung) was 93.8 µM, the TGI (OVCAR-8 ovarian) was 82.9 µM and the TGI (ACHN renal) was > 100 µM. For the same compound, the TGI (SK-OV-3 ovarian) was > 100 µM, the TGI (K-562 leukemia) was > 100 µM and the TGI (MDA-N) was > 100 µM. The TGI (NCI/ADR-RES ovarian) was 65.6 µM, the TGI (UACC-257 melanoma) was > 100 µM and the TGI (OVCAR-4 ovarian) was 97.7 µM. The TGI (OVCAR-3 ovarian) was > 100 µM, the TGI (EKVX NSCLC) was > 100 µM and the TGI (HL-60(TB) leukemia) was > 100 µM. The TGI (M14 melanoma) was > 100 µM, the TGI (DU-145 prostate) was > 100 µM and the TGI (IGROV1 ovarian) was > 100 µM. The TGI (786-0 renal) was > 100 µM, the TGI (CCRF-CEM leukemia) was > 100 µM and the TGI (COLO 205 colon) was > 100 µM. The TGI (SF-268 CNS) was > 100 µM, the TGI (NCI-H522 lung) was 47 µM and the TGI (NCI-H23 lung) was > 100 µM. The TGI (PC-3 prostate) was > 100 µM, the TGI (SK-MEL-2 melanoma) was > 100 µM and the TGI (MALME-3M melanoma) was > 100 µM. For the same compound, the TGI (HCC-2998 colon) was > 100 µM, the TGI (HT29 colon) was > 100 µM and the TGI (T-47D breast) was > 100 µM. For the same compound, the TGI (MCF7 breast) was > 100 µM, the TGI (HS 578T breast) was > 100 µM and the TGI (RXF 393 renal) was > 100 µM. The TGI (U251 CNS) was 54.3 µM, the TGI (HOP-62 NSCLC) was 38.1 µM and the TGI (UACC-62 melanoma) was > 100 µM. The TGI (SN12C renal) was > 100 µM, the TGI (MOLT-4 leukemia) was > 100 µM and the TGI (SW-620 colon) was > 100 µM. The TGI (SNB-19 CNS) was 80 µM, the TGI (LOX IMVI melanoma) was > 100 µM and the TGI (SNB-75 CNS) was 46.8 µM. The TGI (HOP-92 NSCLC) was > 100 µM, the TGI (NCI-H460 lung) was > 100 µM and the TGI (KM12 colon) was > 100 µM. The TGI (MDA-MB-231 breast) was > 100 µM, the TGI (HCT-116 colon) was > 100 µM and the TGI (A498 renal) was > 100 µM. For the same compound, the TGI (SF-295 CNS) was > 100 µM, the TGI (RPMI-8226 leukemia) was > 100 µM and the TGI (A549 NSCLC) was > 100 µM. For the same compound, the TGI (BT-549 breast) was > 100 µM, the TGI (CAKI-1 renal) was > 100 µM and the TGI (OVCAR-5 ovarian) was > 100 µM. The TGI (TK-10 renal) was > 100 µM.
